This series deals with GENE-TOX genotoxicity assays, various organisms and cells. As to the kind of experiment: GENE-TOX mutagenicity studies. The conditions noted are these: for call: Assay Type: In vivo carcinogenicity studies.
The mark [1] stands for this setting: Species/Cell Type: Salmonella typhimurium (one or more of the five standard strains: TA98, TA100, TA1535, TA1537, and TA1538), Assay Type: Histidine reverse gene mutation, Ames assay, Assay Code: SAL-, Evaluation Type: Evaluation A (Pre-1980).
Where [2] appears, read: Species/Cell Type: Drosophila melanogaster, Assay Type: Sex-linked recessive lethal gene mutation, Assay Code: SRLT, Evaluation Type: Evaluation A (Pre-1980).
[3] abbreviates: Species/Cell Type: Escherichia coli polA (W3119 vs P3478), Assay Type: Rec-assay, DNA effects (bacterial DNA repair), Assay Code: RE1T, Evaluation Type: Evaluation A (Pre-1980).
Setting [4] is: Species/Cell Type: Salmonella typhimurium (one or more of the five standard strains: TA98, TA100, TA1535, TA1537, and TA1538), Assay Type: Histidine reverse gene mutation, Ames assay, Assay Code: SAL+*, Activation: With metabolic activation, Evaluation Type: Evaluation A (Pre-1980).
Setting [5] is: Species/Cell Type: Mouse, Sex: Male, Assay Type: Sperm morphology, Assay Code: SPI+, Evaluation Type: Evaluation A (Pre-1980).
Where [6] appears, read: Species/Cell Type: Escherichia coli polA (W3110 vs P3478), Assay Type: Rec-assay, DNA effects (bacterial DNA repair), Assay Code: RE2-, Evaluation Type: Evaluation A (Pre-1980).
Setting [7] is: Species/Cell Type: Mouse (BALB/c-3T3) cells, Assay Type: Cell transformation, Assay Code: CTB-, Evaluation Type: Evaluation A (Pre-1980).
Setting [8] is: Species/Cell Type: Syrian hamster embryo (SHE) cells, Assay Type: Cell transformation, clonal assay, Assay Code: CTC-, Evaluation Type: Evaluation A (Pre-1980).
Setting [9] is: Species/Cell Type: Human, Assay Type: Sister-chromatid exchange (SCE) in vitro, Assay Code: SC1T, Evaluation Type: Evaluation B (Post-1980).
Setting [10] is: Species/Cell Type: Nonhuman, Assay Code: CCG+, Evaluation Type: Evaluation A (Pre-1980).

Calls of active or inactive are those of the source. No rule for the calls is given here.

Turning to `Oc1ccc2ncccc2c1`, under setting [1], the mutagenic call was “inactive; negative”.

For `CCOP(=S)(NC(C)CC)Oc1cc(C)ccc1[N+](=O)[O-]` (stereo unspecified), the mutagenic call (Species/Cell Type: Salmonella typhimurium, Assay Type: Forward and reverse gene mutation, host-mediated assay, Assay Code: HMA-, Evaluation Type: Evaluation A (Pre-1980)) is “inactive; negative”.

For `Cc1cc2nc3ccc(N(C)C)cc3nc2cc1N`, the mutagenic call under setting [2] is listed as “no conclusion”; the mutagenic call under setting [3] is “no conclusion”; the mutagenic call (Species/Cell Type: Neurospora crassa, Assay Type: Aneuploidy, chromosome aberrations, Assay Code: NEN-, Evaluation Type: Evaluation A (Pre-1980)) was “inactive; negative”; the mutagenic call under setting [4] was “active; positive”.

For the molecule `[O]=[Sn]([OH])[OH]`, for the setting “Species/Cell Type: Bacillus subtilis (H17 vs M45), Assay Type: Rec-assay, spot test, DNA effects (bacterial DNA repair), Assay Code: REW-, Evaluation Type: Evaluation A (Pre-1980)”, the mutagenic call is “inactive; negative”.

For `O=C(NO)NO`, the mutagenic call was “no conclusion” (Species/Cell Type: Drosophila melanogaster, Assay Type: Aneuploidy, sex chromosome gain, chromosome aberrations, Assay Code: DAGT, Evaluation Type: Evaluation A (Pre-1980)); “inactive; negative” (Species/Cell Type: Drosophila melanogaster, Assay Type: Aneuploidy, whole sex chromosome loss, chromosome aberrations, Assay Code: DAC-M, Evaluation Type: Evaluation A (Pre-1980)); “no conclusion” under setting [2].

With `C[n+]1c2cc(N)ccc2cc2ccc(N)cc21` (tested in a mixture with another compound), the mutagenic call is “active; positive” (Species/Cell Type: Aspergillus nidulans, Assay Type: Forward gene mutation, Assay Code: ASF+, Evaluation Type: Evaluation A (Pre-1980)); “active; positive” (Species/Cell Type: Mammalian cell culture, nonhuman, Assay Type: Micronucleus test in vitro, chromosome aberrations, Assay Code: MN&+U, Dose Response: Unconfirmed positive response, Evaluation Type: Evaluation A (Pre-1980)); “inactive; negative” (Species/Cell Type: Mammalian oocytes or early embryo, Assay Type: Chromosome aberrations in vivo, Assay Code: CYO-, Evaluation Type: Evaluation A (Pre-1980)); “active; positive” (Species/Cell Type: Mammalian polychromatic erythrocytes, Assay Type: Micronucleus test, chromosome aberrations, Assay Code: MNT+U, Dose Response: Unconfirmed positive response, Evaluation Type: Evaluation A (Pre-1980)); “active; positive” under setting [5]; “no conclusion” (Species/Cell Type: Saccharomyces cerevisiae, Assay Type: Mitotic recombination or gene conversion, Assay Code: YECT, Evaluation Type: Evaluation A (Pre-1980)). Moreover, the mutagenic call by setting is: (Species/Cell Type: Saccharomyces cerevisiae, Assay Type: Mitotic recombination or gene conversion, Assay Code: YEH+, Evaluation Type: Evaluation A (Pre-1980)) “active; positive”; (Species/Cell Type: Salmonella typhimurium, Escherichia coli, Serratia marcesens, Assay Type: Forward and reverse gene mutation, host-mediated assay, Assay Code: HMN-, Evaluation Type: Evaluation A (Pre-1980)) “inactive; negative”.

Take `c1ccc2cc3ccccc3cc2c1`: the mutagenic call was “inactive; negative” under setting [6]; “no conclusion” under setting [3]; “no conclusion” (Species/Cell Type: Fischer rat embryo (RLV/1706) cells, Assay Type: Cell transformation, viral enhanced, Assay Code: CTRT, Evaluation Type: Evaluation A (Pre-1980)); “inactive; negative” (Species/Cell Type: Human diploid fibroblasts, Assay Type: Unscheduled DNA synthesis (UDS) in vitro, DNA effects, Assay Code: UDH-*, Activation: With metabolic activation, Evaluation Type: Evaluation A (Pre-1980)); “no conclusion” (Species/Cell Type: Mammalian polychromatic erythrocytes, Assay Type: Micronucleus test, chromosome aberrations, Assay Code: MNTT, Evaluation Type: Evaluation A (Pre-1980)); “inactive; negative” under setting [7]. Moreover, the mutagenic call reads like this: (Species/Cell Type: Mouse embryo (AKR/ME) cells, Assay Type: Cell transformation, Assay Code: CTK-, Evaluation Type: Evaluation A (Pre-1980)) “inactive; negative”; (Species/Cell Type: Mouse, Sex: Male, Assay Type: Sperm morphology, Assay Code: SPI-, Evaluation Type: Evaluation A (Pre-1980)) “inactive; negative”; (Species/Cell Type: Nonhuman, Assay Type: Chromosome aberrations in vitro, Assay Code: CY&-, Evaluation Type: Evaluation A (Pre-1980)) “inactive; negative”; (Species/Cell Type: Nonhuman, Assay Type: Sister-chromatid exchange (SCE) in vitro, Assay Code: SC2+D, Dose Response: With dose response, Evaluation Type: Evaluation B (Post-1980)) “active; positive”; (Species/Cell Type: Nonhuman, Assay Type: Sister-chromatid exchange (SCE) in vitro, Assay Code: SC2T, Evaluation Type: Evaluation A (Pre-1980)) “no conclusion”; (Species/Cell Type: Nonhuman, Assay Type: Sister-chromatid exchange (SCE) in vivo, Assay Code: SC3-, Evaluation Type: Evaluation A (Pre-1980)) “inactive; negative”. In addition, the mutagenic call is “no conclusion” (Species/Cell Type: Nonhuman, Assay Type: Sister-chromatid exchange (SCE) in vivo, Assay Code: SC3T, Evaluation Type: Evaluation B (Post-1980)); “inactive; negative” (Species/Cell Type: Rat primary hepatocytes, Assay Type: Unscheduled DNA synthesis (UDS) in vitro, DNA effects, Assay Code: UDP-, Evaluation Type: Evaluation A (Pre-1980)); “inactive; negative” (Species/Cell Type: Saccharomyces cerevisiae, Assay Type: Mitotic recombination or gene conversion, Assay Code: YEH-, Evaluation Type: Evaluation A (Pre-1980)); “inactive; negative” under setting [1]; “no conclusion” (Species/Cell Type: Salmonella typhimurium, Assay Type: Forward and reverse gene mutation, host-mediated assay, Assay Code: HMAT, Evaluation Type: Evaluation A (Pre-1980)); “inactive; negative” under setting [8]. For the same molecule, the call (Species/Cell Type: Nonhuman, Assay Code: CCGT, Evaluation Type: Evaluation A (Pre-1980)) is given as “no conclusion”.

Regarding `Cc1ncc(CO)c(C(=O)O)c1O`, the mutagenic call was “no conclusion” (Species/Cell Type: Human lymphocytes, Assay Type: Sister-chromatid exchange (SCE) in vitro, Assay Code: SCLT, Evaluation Type: Evaluation B (Post-1980)) and “no conclusion” under setting [9].

For the molecule `CC1=CCc2c1c(C)cc1c2ccc2ccccc21`, the mutagenic call under setting [4] was “active; positive”.

Consider `Nc1nnc(-c2ccc([N+](=O)[O-])o2)s1`, for which the call under setting [10] is “active; positive”.

For `NCl`, where the note is “Species/Cell Type: Mammalian polychromatic erythrocytes, Assay Type: Micronucleus test, chromosome aberrations, Assay Code: MNTT, Evaluation Type: Evaluation B (Post-1980)”, the mutagenic call is recorded as “no conclusion”.

As to `CCC1CCCCN1CCNc1ccc(CO)c2sc3ccccc3c(=O)c12` (stereo unspecified), the mutagenic call (Species/Cell Type: Mouse lymphoma (L5178Y) cells, Assay Type: Forward gene mutation at the thymidine kinase (TK) locus, chromosome aberrations, Assay Code: L51+, Evaluation Type: Evaluation A (Pre-1980)) was “active; positive”.

Regarding `CC(C)NCC(Cl)c1ccc2ccccc2c1` (stereo unspecified), the mutagenic call under setting [5] is “active; positive”.

Consider `CC(=O)[O-].CC(=O)[O-].CC(=O)[O-].[Cr+3]`, for which the mutagenic call reads like this: (Species/Cell Type: Chinese hamster ovary (CHO) cells, Assay Type: Forward gene mutation at the HPRT locus, Assay Code: CHOT, Evaluation Type: Evaluation B (Post-1980)) “no conclusion”; (Species/Cell Type: Nonhuman, Assay Type: Sister-chromatid exchange (SCE) in vitro, Assay Code: SC2T, Evaluation Type: Evaluation B (Post-1980)) “no conclusion”.

Take `CCCCNCC`: the mutagenic call (Species/Cell Type: Fischer rat embryo (RLV/1706) cells, Assay Type: Cell transformation, viral enhanced, Assay Code: CTR-, Evaluation Type: Evaluation A (Pre-1980)) was “inactive; negative”.

`Nc1ccc2c(c1)C(=O)c1ccccc1C2=O`: the call under setting [10] is “active; positive”.

For `Cc1cc(N(C)C)ccc1N=Nc1ccccc1`, the mutagenic call is, setting by setting: under setting [6], “inactive; negative”; under setting [3], “no conclusion”; (Species/Cell Type: Fischer rat embryo (RLV/1706) cells, Assay Type: Cell transformation, viral enhanced, Assay Code: CTR+, Evaluation Type: Evaluation A (Pre-1980)) “active; positive”; (Species/Cell Type: Human diploid fibroblasts, Assay Type: Unscheduled DNA synthesis (UDS) in vitro, DNA effects, Assay Code: UDH-, Evaluation Type: Evaluation A (Pre-1980)) “inactive; negative”; under setting [7], “inactive; negative”; (Species/Cell Type: Nonhuman, Assay Type: Sister-chromatid exchange (SCE) in vitro, Assay Code: SC2+D, Dose Response: With dose response, Evaluation Type: Evaluation A (Pre-1980)) “active; positive”. For the same molecule, the mutagenic call reads like this: (Species/Cell Type: Rat primary hepatocytes, Assay Type: Unscheduled DNA synthesis (UDS) in vitro, DNA effects, Assay Code: UDPT, Evaluation Type: Evaluation A (Pre-1980)) “no conclusion”; (Species/Cell Type: Saccharomyces cerevisiae, Assay Type: Mitotic recombination or gene conversion, Assay Code: YEH+/-*, Activation: With metabolic activation, Evaluation Type: Evaluation A (Pre-1980)) “inactive; positive without activation, negative with activation”; under setting [4], “active; positive”; (Species/Cell Type: Salmonella typhimurium, Assay Type: Forward and reverse gene mutation, host-mediated assay, Assay Code: HMA+, Evaluation Type: Evaluation A (Pre-1980)) “active; positive”; under setting [8], “inactive; negative”. Besides, the call (Species/Cell Type: Nonhuman, Assay Code: CCG+L, Evaluation Type: Evaluation A (Pre-1980)) was “active; positive”.

`CC[C@H](C)[C@H](NC(=O)[C@@H](NC(=O)N[C@@H](Cc1ccccc1)C(=O)O)C1CCN=C(N)N1)C(=O)N[C@H](C=O)Cc1ccccc1` (stereo partly specified) (tested in a mixture with another compound): the mutagenic call under setting [9] is recorded as “no conclusion”.

Source of the values: PubChem BioAssay AID1259408 (Genetic Toxicology Data Bank (GENE-TOX), 2018).
